Test results: patent US12134620B2 (ARAXES PHARMA LLC, priority 2018, dated 2024)

What follows are compounds tested against T1, KRAS G12C 1-169, his-tagged protein, GDP-loaded (Homo sapiens, UniProt P01116, G12C) (assay: Biochemical assay: covalent modification of KRAS G12C, analysed by mass spectrometry (RapidFire/TOF or Q-Exactive)). Details: Modification activity, modification percentage from MS peak intensities.
T1 construct: KRAS G12C 1-169, his-tagged protein, GDP-loaded; His tag
Type: binding
In short: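 Covalent adduct formation was quantified by intact-protein mass spectrometry, either TOF or C4 LC-Q Exactive Plus, as percent modified versus unmodified protein after deconvolution. Compounds at 8 or 32 μM final were incubated with 0.5 or 2 μM GDP-bound KRAS G12C(1-169)-His in Hepes/NaCl/MgCl2 buffer before acid quench.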
Note: time not given here.

| Compound | Binding % |
| --- | --- |
| C=CC(=O)N1CC2(CCN(c3nc(OCc4cnc(C)nc4)nc(-c4c(C)ccc5cnn(C)c45)c3C#N)C2)C1 [Compound I-169, 4-(2-acryloyl-2,6-diazaspiro[3.4]octan-6-yl)-6-(1,6-dimethyl-1H-indazol-7-yl)-2-((2-methylpyrimidin-5-yl)methoxy)pyrimidine-5-carbonitirle] | ++ (++ indicates binding activity from 50 to 85%) |
| C=CC(=O)N1CC2(CCN(c3ncnc(-c4c(C)ccc5[nH]nc(N)c45)c3C#N)C2)C1 [Compound I-242, 4-(2-acryloyl-2,6-diazaspiro[3.4]octan-6-yl)-6-(3-amino-5-methyl-1H-indazol-4-yl)pyrimidine-5-carbonitrile] | ++ (++ indicates binding activity from 50 to 85%) |
| Cc1ccc2[nH]ncc2c1-c1cncc(N2CCC3(CN(C(=O)/C=C/CN(C)C)C3)C2)c1C#N [Compound I-279, (E)-3-(2-(4-(dimethylamino)but-2-enoyl)-2,6-diazaspiro[3.4]octan-6-yl)-5-(5-methyl-1H-indazol-4-yl)isonicotinonitrile] | + (+ indicates binding activity greater than 0% and up to 50%) |
| C=CC(=O)N1CC2(CCN(c3nc(N4CCOCC4)nc(-c4c(C)ccc5[nH]ncc45)c3C#CC3CC3)C2)C1 [Compound I-190, 1-(6-(5-(cyclopropylethynyl)-6-(5-methyl-1H-indazol-4-yl)-2-morpholinopyrimidin-4-yl)-2,6-diazaspiro[3.4]octan-2-yl)prop-2-en-1-one] | + (+ indicates binding activity greater than 0% and up to 50%) |
| C=CC(=O)N1CC2(CC(=O)N(c3nc(N4CCOCC4)nc(-c4c(C)ccc5cn[nH]c45)c3C#N)C2)C1 [Compound I-176, 4-(2-acryloyl-7-oxo-2,6-diazaspiro[3.4]octan-6-yl)-6-(6-methyl-1H-indazol-7-yl)-2-morpholinopyrimidine-5-carbonitrile] | + (+ indicates binding activity greater than 0% and up to 50%) |
| C=CC(=O)N1CC2(CCN(c3nc(N4CCCC4)nc(-c4c(C)ccc5[nH]nc(N)c45)c3C#N)C2)C1 [Compound I-34, 4-(2-acryloyl-2,6-diazaspiro[3.4]octan-6-yl)-6-(3-amino-5-methyl-1H-indazol-4-yl)-2-(pyrrolidin-1-yl)pyrimidine-5-carbonitrile] | +++ (+++ indicates binding activity greater than 85%) |
| C=CC(=O)N1CC2(CCN(c3nc(C(N)=O)nc(-c4c(C)ccc5[nH]ncc45)c3C#N)C2)C1 [Compound I-202, 4-(2-acryloyl-2,6-diazaspiro[3.4]octan-6-yl)-5-cyano-6-(5-methyl-1H-indazol-4-yl)pyrimidine-2-carboxamide] | + (+ indicates binding activity greater than 0% and up to 50%) |
| C=CC(=O)N1CC2(CCN(c3nc(OC[C@@H]4CCCN4C)nc(-c4c(C)ccc5cnn(C6CC6)c45)c3C#N)C2)C1 [Compound I-103, 4-(2-acryloyl-2,6-diazaspiro[3.4]octan-6-yl)-6-(1-cyclopropyl-6-methyl-1H-indazol-7-yl)-2-(((S)-1-methylpyrrolidin-2-yl)methoxy)pyrimidine-5-carbonitrile] | + (+ indicates binding activity greater than 0% and up to 50%) |
| C=CC(=O)N1CC2(CC(=O)N(c3nc(N4CCOCC4)nc(-c4c(C)ccc5[nH]ncc45)c3C#N)C2)C1 [Compound I-130, 4-(2-acryloyl-7-oxo-2,6-diazaspiro[3.4]octan-6-yl)-6-(5-methyl-1H-indazol-4-yl)-2-morpholinopyrimidine-5-carbonitrile] | ++ (++ indicates binding activity from 50 to 85%) |
| C=CC(=O)N1CC2(CCN(c3nc(N4CCC5(CC4)CN(C)C5)nc(-c4c(C)ccc5[nH]ncc45)c3C#N)C2)C1 [Compound I-112, 4-(2-acryloyl-2,6-diazaspiro[3.4]octan-6-yl)-6-(5-methyl-1H-indazol-4-yl)-2-(2-methyl-2,7-diazaspiro[3.5]nonan-7-yl)pyrimidine-5-carbonitrile] | +++ (+++ indicates binding activity greater than 85%) |
